Where two headings read alike, the source gives them in different places.

Common to all, as to assay type: in vivo
The test system of assay [1] is Tobacco Budworm (Heliothis virescens). In words: B.3 Tobacco Budworm, microtiter plate with insect diet and eggs. The settings on record: 120 h, egg and larval mortality after 5 days, read-out: mortality in comparison with untreated controls. How it is done: For evaluating control of Tobacco Budworm, the test unit consisted of 96-well-microtiter plates containing an insect diet and 15-25 H. virescens eggs. The compounds were formulated using a solution containing 75% v/v water and 25% v/v DMSO. Different concentrations of formulated compounds were sprayed onto the insect diet at 10 μl, using a custom-built micro atomizer, at two replications. After application, microtiter plates were incubated at about 28±1° C. and about 80±5% relative humidity for 5 days. Egg and larval mortality was then visually assessed.

Assay [2] deals with Diamond Back Moth (Plutella xylostella). In words: B.5 Diamond Back Moth, cabbage leaf disc dip. The settings on record: for B.5, 10 ppm: comparative experiment, test B.5 (mortality), unit not given; for mortality at 300 ppm: Plutella xylostella, foliar, 3rd instar larvae, 72 hours after treatment, read-out: mortality in comparison with untreated controls. As for the experimental part:
The active compound was dissolved at the desired concentration in a mixture of 1:1 (vol:vol) distilled water:acetone. Surfactant (Kinetic) was added at a rate of 0.01% (vol/vol). The test solution was prepared at the day of use. Cabbage leaf discs (60 mm in diameter) were dipped in test solution and air-dried. Treated leaves were placed in petri dishes lined with moistened filter paper and inoculated with ten 3rd instar larvae. Mortality was recorded 72 hours after treatment. Feeding damages were also recorded using a scale of 0-100%.

Assay [3] relates to Yellow Fever Mosquito (Aedes aegypti). In words: whole plant or invertebrate. The settings on record: 48 h, larval mortality after 2 days, read-out: mortality in comparison with untreated controls. How it is done: For evaluating control of Yellow Fever Mosquito, the test unit consisted of 96-well-microtiter plates containing 200 μl of tap water per well and 5-15 freshly hatched A. aegypti larvae. The active compounds were formulated using a solution containing 75% (v/v) water and 25% (v/v) DMSO. Different concentrations of formulated compounds or mixtures were sprayed onto the insect diet at 2.5 μl, using a custom-built micro atomizer, at two replications.
After application, microtiter plates were incubated at 28±1° C., 80±5% RH for 2 days. Larval mortality was then visually assessed.

Assay [4] has as its system Orchid Thrips (Dichromothrips corbetti). In words: B.6 Orchid Thrips, floral-immersion technique. The settings on record: for B.6, 10 ppm: comparative experiment, test B.6 (percent mortality), unit not given; for mortality at 300 ppm: read-out: mortality in comparison with untreated controls. As for the experimental part:
Dichromothrips corbetti adults used for bioassay were obtained from a colony maintained continuously under laboratory conditions. For testing purposes, the test compound was diluted in a 1:1 mixture of acetone:water (vol:vol), plus Kinetic at a rate of 0.01% v/v.
Thrips potency of each compound was evaluated by using a floral-immersion technique. Each orchid petal was dipped into treatment solution and allowed to dry in Petri dishes. Treated petals were placed into individual re-sealable plastic along with about 20 adult thrips. All test arenas were held under dark condition and a temperature of about 28° C. for duration of the assay. The percent mortality was recorded 72 hours after treatment.

Assay [5] relates to Boll Weevil (Anthonomus grandis). In words: B.1 Boll weevil, microtiter plate with insect diet and eggs. The settings on record: 120 h, egg and larval mortality after 5 days, read-out: mortality in comparison with untreated controls. How it is done: For evaluating control of boll weevil, the test unit consisted of 96-well-microtiter plates containing an insect diet and 5-10 A. grandis eggs.
The compounds were formulated using a solution containing 75% v/v water and 25% v/v DMSO. Different concentrations of formulated compounds were sprayed onto the insect diet at 5 μl, using a custom-built micro atomizer, at two replications.
After application, microtiter plates were incubated at about 25±1° C. and about 75±5% relative humidity for 5 days. Egg and larval mortality were then visually assessed.

Assay [6] deals with Southern Armyworm (Spodoptera eridania). In words: B.7 Southern Armyworm, 2nd instar larvae, sprayed lima bean plants. The settings on record: 96 h, 4 days after treatment, read-out: mortality in comparison with untreated controls. As for the experimental part: The active compounds were formulated by a Tecan liquid handler in 100% cyclohexanone as a 10′000 ppm solution supplied in tubes. The 10′000 ppm solution was serially diluted in 100% cyclohexanone to make interim solutions. These served as stock solutions for which final dilutions were made by the Tecan in 50% acetone:50% water (v/v) into 10 or 20 ml glass vials. A nonionic surfactant (Kinetic®) was included in the solution at a volume of 0.01% (v/v). The vials were then inserted into an automated electrostatic sprayer equipped with an atomizing nozzle for application to plants/insects. Lima bean plants (variety Sieva) were grown 2 plants to a pot and selected for treatment at the 1st true leaf stage. Test solutions were sprayed onto the foliage by an automated electrostatic plant sprayer equipped with an atomizing spray nozzle. The plants were dried in the sprayer fume hood and then removed from the sprayer. Each pot was placed into perforated plastic bags with a zip closure. Ten to 11 armyworm larvae were placed into the bag and the bags zipped closed. Test plants were maintained in a growth room at about 25° C. and about 20-40% relative humidity for 4 days, avoiding direct exposure to fluorescent light (14:10 light:dark photo-period) to prevent trapping of heat inside the bags. Mortality and reduced feeding were assessed 4 days after treatment, compared to untreated control plants.

Assay [7] relates to Green Peach Aphid (Myzus persicae). In words: B.2 Green Peach Aphid (mixed life stages), systemic artificial diet under membrane. The settings on record: 72 h, read-out: mortality in comparison with untreated controls. The text has this: For evaluating control of Green Peach Aphid through systemic means the test unit consisted of 96-well-microtiter plates containing liquid artificial diet under an artificial membrane. The compounds were formulated using a solution containing 75% v/v water and 25% v/v DMSO. Different concentrations of formulated compounds were pipetted into the aphid diet, using a custom-built pipette, at two replications. After application, 5-8 adult aphids were placed on the artificial membrane inside the microtiter plate wells. The aphids were then allowed to suck on the treated aphid diet and incubated at about 23±1° C. and about 50±5% relative humidity for 3 days. Aphid mortality and fecundity was then visually assessed.

The test system of assay [8] is Silverleaf Whitefly (Bemisia argentifoli). In words: B.8 Silverleaf Whitefly (adults), sprayed cotton plants. The settings on record: 72 h, 3 days after treatment, read-out: mortality in comparison with untreated controls. As for the experimental part: The active compounds were formulated by a Tecan liquid handler in 100% cyclohexanone as a 10,000-ppm solution supplied in tubes. The 10,000-ppm solution was serially diluted in 100% cyclohexanone to make interim solutions. These served as stock solutions for which final dilutions were made by the Tecan in 50% acetone:50% water (v/v) into 5 or 10 ml glass vials. A nonionic surfactant (Kinetic®) was included in the solution at a volume of 0.01% (v/v). The vials were then inserted into an automated electrostatic sprayer equipped with an atomizing nozzle for application to plants/insects. Cotton plants at the cotyledon stage (one plant per pot) were sprayed by an automated electrostatic plant sprayer equipped with an atomizing spray nozzle. The plants were dried in the sprayer fume hood and then removed from the sprayer. Each pot was placed into a plastic cup and about 10 to 12 whitefly adults (approximately 3-5 days old) were introduced. The insects were collected using an aspirator and a nontoxic Tygon® tubing connected to a barrier pipette tip. The tip, containing the collected insects, was then gently inserted into the soil containing the treated plant, allowing insects to crawl out of the tip to reach the foliage for feeding. Cups were covered with a reusable screened lid. […] Mortality was assessed 3 days after treatment, compared to untreated control 5 plants.

The mark [9] stands for this setting: 300 ppm, adult thrips, 72 hours after treatment.
The mark [10] stands for this setting: 2500 ppm, aphid mortality after 3 days.

A word on the mortality: it is the share of the test organisms that died. Regarding `N#Cc1ccc(NC2=NOC(c3cc(Cl)cc(Cl)c3)(C(F)(F)F)C2)cc1-n1cncn1` (stereo not drawn) [I-1], the mortality at 2500 ppm in assay [1], in assay [3], in assay [5] and in assay [7] (setting [10]) was at least 75% each time. In addition, the “B.5, 10 ppm” value in assay [2] was 100. The mortality at 300 ppm in assay [2], in assay [4] (setting [9]) and in assay [6] was at least 75% in each case. Besides, the “B.6, 10 ppm” value in assay [4] is on record as 100.
In the case of `Fc1c(Cl)cc(C2(C(F)(F)F)CC(Nc3ccc(Cl)c(-n4cnc(C(F)(F)F)c4)c3)=NO2)cc1Cl` (stereo not drawn) [I-16, N-[4-chloro-3-[4-(trifluoromethyl)imidazol-1-yl]phenyl]-5-(3,5-dichloro4-fluoro-phenyl)-5-(trifluoromethyl)-4H-isoxazol-3-amine], in assay [4] (setting [9]), the mortality at 300 ppm was at least 75%.
For the compound `N#Cc1ccc(NC2=NOC(c3cc(Cl)c(F)c(Cl)c3)(C(F)(F)F)C2)cc1-n1cncn1` (stereo not drawn) [I-4, 4-[[5-(3,5-dichloro-4-fluoro-phenyl)-5-(trifluoromethyl)-4H-isoxazol-3-yl]amino]-2-(1,2,4-triazol-1-yl)benzonitrile], in assay [4] (setting [9]), the mortality at 300 ppm is at least 75%.
Consider `CCN(C1=NOC(c2cc(Cl)c(F)c(Cl)c2)(C(F)(F)F)C1)c1ccc(C#N)c(-n2cncn2)c1` (stereo not drawn) [I-20, 4-[[5-(3,5-dichloro-4-fluoro-phenyl)-5-(trifluoromethyl)-4H-isoxazol-3-yl]-ethyl-amino]-2-(1,2,4-triazol-1-yl)benzonitrile], for which the mortality at 300 ppm in assay [4] (setting [9]) was at least 75%.
As for `N#Cc1cnn(-c2cccc(C3=NOC(c4cc(Cl)cc(Cl)c4)(C(F)(F)F)C3)c2)c1` (stereo not drawn) [WO2011/073444 Table C.1, No. I-4, reference compound], the “B.5, 10 ppm” value in assay [2] was 0. Moreover, the “B.6, 10 ppm” value in assay [4] came out at 0.
`O=C(NCC(F)(F)F)c1cnn(-c2cc(NC3=NOC(c4cc(Cl)c(F)c(Cl)c4)(C(F)(F)F)C3)ccc2Cl)c1` (stereo not drawn) [I-18, 1-[2-chloro-5-[[5-(3,5-dichloro-4-fluoro-phenyl)-5-(trifluoromethyl)-4H-isoxazol-3-yl]amino]phenyl]-N-(2,2,2-trifluoroethyl)pyrazole-4-carboxamide]: in assay [4] (setting [9]), the mortality at 300 ppm is at least 75%.
As for `CCOC(=O)N(C1=NOC(c2cc(Cl)c(F)c(Cl)c2)(C(F)(F)F)C1)c1ccc(Cl)c(-n2cnc(C(F)(F)F)c2)c1` (stereo not drawn) [I-26, ethyl N-[4-chloro-3-[4-(trifluoromethyl)imidazol-1-yl]phenyl]-N-[5-(3,5-dichloro-4-fluoro-phenyl)-5-(trifluoromethyl)-4H-isoxazol-3-yl]carbamate], the mortality at 300 ppm in assay [4] (Thrips, 72 h) was at least 75%. Moreover, the mortality at 2500 ppm in assay [7] is at least 75%.
For the compound `Fc1c(Cl)cc(C2(C(F)(F)F)CC(Nc3ccc(Cl)c(-n4cc(C(F)(F)F)cn4)c3)=NO2)cc1Cl` (stereo not drawn) [I-14, N-[4-chloro-3-[4-(trifluoromethyl)pyrazol-1-yl]phenyl]-5-(3,5-dichloro-4-fluoro-phenyl)-5-(trifluoromethyl)-4H-isoxazol-3-amine], the mortality at 300 ppm in assay [8] and in assay [4] (setting [9]) was at least 75% throughout.
As for `COCN(C1=NOC(c2cc(Cl)c(F)c(Cl)c2)(C(F)(F)F)C1)c1ccc(Cl)c(-n2cc(C(F)(F)F)cn2)c1` (stereo not drawn) [I-23, N-[4-chloro-3-[4-(trifluoromethyl)pyrazol-1-yl]phenyl]-5-(3,5-dichloro-4-fluoro-phenyl)-N-(methoxymethyl)-5-(trifluoromethyl)-4H-isoxazol-3-amine], the mortality at 300 ppm in assay [2], in assay [4] (setting [9]) and in assay [6] was at least 75% each time.
Turning to `Fc1c(Cl)cc(C2(C(F)(F)F)CC(Oc3ccc(Cl)c(-n4cncn4)c3)=NO2)cc1Cl` (stereo not drawn) [I-27, 3-[4-chloro-3-(1,2,4-triazol-1-yl)phenoxy]-5-(3,5-dichloro-4-fluoro-phenyl)-5-(trifluoromethyl)-4H-isoxazole], the mortality at 2500 ppm in assay [1], in assay [3], in assay [5] and in assay [7] (setting [10]) was at least 75% each time. For the same compound, the mortality at 300 ppm in assay [4] (setting [9]) and in assay [6] was at least 75% in each case.
For `N#Cc1ccc(C2=NOC(c3cc(Cl)cc(Cl)c3)(C(F)(F)F)C2)cc1-n1cncn1` [WO2011/073444 Table 3937, No. D-539, reference compound], the “B.5, 10 ppm” value in assay [2] was found to be 0. Besides, in assay [4], the “B.6, 10 ppm” value is given as 0.

Values taken from patent publication US20250163037A1, “SUBSTITUTED ISOXAZOLINE DERIVATIVES” (BASF SE, priority 2022, published 2025).
